Our source for the IC50 values is article PMC4340362 (ACS Chemical Biology, 2014).

Like-named read-outs stand apart in the source and are kept apart here.

This assay relates to MDA-MB-231 breast cancer cells. The assay can be described thus: Quantitative scratch-wound. Format: cell-based. Particulars: Homo sapiens.

Regarding `C[C@@H]1O[C@@H](O[C@H]2C[C@@H](O)[C@]3(CO)[C@H]4[C@H](O)C[C@]5(C)[C@@H](C6=CC(=O)OC6)CC[C@]5(O)[C@@H]4CC[C@]3(O)C2)[C@H](O)[C@H](O)[C@H]1O` [Compound 1, ouabain], the IC50 runs as follows: (MDA-MB-231, read-out: Cell migration IC50) 173 nM; (MDA-MB-231, read-out: cell migration) 173 nM.
